Laboratory results: patent US9457106B2, “Cancer therapy” (priority 2011, dated 2016)
Where two headings read alike, the source gives them in different places.

What was measured:
[1] = for Formation of a precipitate: 1 mL calcium chloride solution (50 mM) added to 10 mL of 100 mM phosphate solution
[2] = cited from earlier work; for Maximum particle energy: beta particles

O=P([O-])([O-])O.[Na+].[Na+] [disodium hydrogen phosphate]
Formation of a precipitate [1]: heavy visible precipitate

[125IH] [iodine-125]
Half-life ([2]; electron capture emitters): 60 days | Particle energy ([2]; electron capture emitters): 0.035 MeV

[131IH] [iodine-131]
Half-life ([2]; beta emitters): 8.04 days | Maximum particle energy [2]: 0.61 MeV

[103Pd] [palladium-103]
Half-life ([2]; electron capture emitters): 17 days | Particle energy ([2]; electron capture emitters): 0.05 MeV

[103Ru] [ruthenium-103]
Half-life ([2]; beta emitters): 40 days | Maximum particle energy [2]: 0.214 MeV

[153Sm] [samarium-153]
Half-life ([2]; beta emitters): 1.96 days | Maximum particle energy [2]: 0.7 (>50%) MeV

O=P([O-])(O)O.[Na+] [sodium dihydrogen phosphate]
Formation of a precipitate [1]: no precipitate was formed | Amount of precipitate formed as a function of sodium hydroxide (0.05 M) added ([1]; 50 mL sodium dihydrogen phosphate (100 mM) and 5 mL calcium chloride (50 mM)): a precipitate of calcium phosphate begins to form

[89Sr] [strontium-89]
Half-life ([2]; beta emitters): 51 days | Maximum particle energy [2]: 1.46 MeV

[90Y] [yttrium-90]
Half-life ([2]; beta emitters): 2.68 days | Maximum particle energy [2]: 2.27 MeV

phosphorus-32
Half-life ([2]; beta emitters): approximately 14 days | Maximum particle energy [2]: 1.71 MeV
